pIC50: −log10 of the molar value.
Experiments:
[1] = target: PARP1 (Homo sapiens, UniProt P09874); assay: Inhibition of PARP1 enzyme activity (ELISA, chemiluminescence); assay type: biochemical; conditions: for IC50: ELISA, histone-coated plate, NAD+, 60 min at 25 °C; for Selectivity PARP2/PARP1: ratio of PARP2 IC50 to PARP1 IC50
[2] = target: PARP2 (Homo sapiens, UniProt Q9UGN5); assay: biochemical;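 note: PARP2 enzyme ELISA on histone-coated plates, Strep-HRP detection with chemiluminescence read-out, 10 min compound preincubation with enzyme, inhibition scaled between Max and Min signal controls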
Description: Experimental Objective: To evaluate the inhibitory effect of the compounds of the present invention on the enzyme activities of PARP1 and PARP2 using ELISA.
• 1. histone-coated 384-well plates was prepared: 25 µL of histone solution was added to each well and incubated overnight at 4 °C. • 2. PBST buffer, blocking buffer (PBS buffer with 5% BSA and 0.05% Tween-20 added) and detection buffer (20 mM HEPES pH 7.5 + 100 mM NaCl + 2 mM DTT + 0.002% Tween-20 + 0.1% BSA) were prepared. • 3. The histone-coated 3 84-well plate was washed three times with PBST buffer, blocked at room temperature with 50 µL blocking buffer for 1 hour, and then washed three times with PBST buffer. • 4. Test compounds were prepared as 2000-fold stock solutions in DMSO. 50 nL of the stock solution was mixed with 19.95 µL detection buffer, and 5 µL of the gradient-diluted test compound was transferred to each well. • 5. Enzymatic reaction (PARP1): PARP1 & DNA mix was pre-incubated at 25 °C for 10 minutes. 10 µL of the PARP1 & DNA mix was added to each well and incubated with the test compound at room temperature for 10 minutes. […] Finally, the 384-well plate was washed three times with PBST buffer. Enzymatic reaction (PARP2): PARP2 was pre-incubated at 25 °C for 10 minutes. 10 µL of PARP2 was added to each well and incubated with the test compound at room temperature for 10 minutes. […] Finally, the 384-well plate was washed three times with PBST buffer. • 6. Detection (PARP1): 20 µL of anti-Poly/Mono-ADP Ribose Rabbit mAb was added and incubated at room temperature for 1.5 hours, followed by three washes of the 384-well plate with PBST buffer. Then, 20 µL of diluted anti-rabbit IgG, HRP-linked Antibody (diluted 1:2000 in blocking buffer) was added and incubated at room temperature for 1 hour. After washing the plate three times with PBST buffer, 25 µL of a 1:1 mixture of Femto-ECL Substrate A and Femto-ECL Substrate B was added. Detection (PARP2): 25 µL of Strep-HRP was added and incubated at room temperature for 1 hour, followed by three washes of the 384-well plate with PBS buffer. Then, 25 µL of a 1:1 mixture of Femto-ECL Substrate A and Femto-ECL Substrate B was added. • 7. Chemiluminescence intensity was measured using an Envision multimode microplate reader. • 8. Data Processing
The inhibition rate was calculated in Excel using formula (1). inh% = (Max−Signal)/(Max−Min)*100 [formula]
The IC50 value was obtained by fitting the data in XL-Fit using formula (2). Y = bottom + (top−bottom)/(1+(IC50/X)*HillSlope); [formula] wherein Y is the inhibition percentage and X is the compound concentration.

[3] = system: DLD-1 BRCA2(-/-) cells; assay: Inhibition of proliferation of DLD-1 BRCA2(-/-) cells (CTG method); assay type: cell-based; conditions: Homo sapiens, DLD-1, 168 h; 7 days incubation, CellTiter-Glo
Description: • 1. Cell Pretreatment: DLD-1 BRCA2(-/-) cells were cultured in growth medium 1640 + 10% FBS (fetal bovine serum) + 1% Penicillin-Streptomycin. Cells in the logarithmic growth phase were digested with trypsin-EDTA, centrifuged, and resuspended. DLD-1 BRCA2(-/-) cells were seeded at 1,000 cells/well in sterile 96-well opaque plates, 75 µl per well. After seeding, the cell culture plates were incubated overnight at 37 °C with 5% CO2 before adhesion, followed by treatment with the test compounds. • 2. DLD-1 BRCA2(-/-) Cell Drug Treatment: The test compound was prepared as a 10 mM stock solution using DMSO. The test compound was then diluted to a 4× working solution using growth medium (starting at 40 µM, with 9 4-fold dilutions). 25 µl of 4× working solution was added to each well to achieve final concentrations of 10000, 2500, 625, 156, 39, 9.7, 2.4, 0.61, and 0.152 nM, respectively. Blank control wells containing the same DMSO concentration were also included, with three replicates for each concentration. After adding the test compound, the cells were incubated at 37 °C with 5% CO2 for 7 days. • 3. After incubation, 100 µl of CellTiter-Glo® Reagent was added to each well, and […] intensity was measured. A curve was fitted using GraphPad software, and the IC50 value for cell proliferation inhibition was calculated.

Sequence of PARP1 (P09874 whole entry): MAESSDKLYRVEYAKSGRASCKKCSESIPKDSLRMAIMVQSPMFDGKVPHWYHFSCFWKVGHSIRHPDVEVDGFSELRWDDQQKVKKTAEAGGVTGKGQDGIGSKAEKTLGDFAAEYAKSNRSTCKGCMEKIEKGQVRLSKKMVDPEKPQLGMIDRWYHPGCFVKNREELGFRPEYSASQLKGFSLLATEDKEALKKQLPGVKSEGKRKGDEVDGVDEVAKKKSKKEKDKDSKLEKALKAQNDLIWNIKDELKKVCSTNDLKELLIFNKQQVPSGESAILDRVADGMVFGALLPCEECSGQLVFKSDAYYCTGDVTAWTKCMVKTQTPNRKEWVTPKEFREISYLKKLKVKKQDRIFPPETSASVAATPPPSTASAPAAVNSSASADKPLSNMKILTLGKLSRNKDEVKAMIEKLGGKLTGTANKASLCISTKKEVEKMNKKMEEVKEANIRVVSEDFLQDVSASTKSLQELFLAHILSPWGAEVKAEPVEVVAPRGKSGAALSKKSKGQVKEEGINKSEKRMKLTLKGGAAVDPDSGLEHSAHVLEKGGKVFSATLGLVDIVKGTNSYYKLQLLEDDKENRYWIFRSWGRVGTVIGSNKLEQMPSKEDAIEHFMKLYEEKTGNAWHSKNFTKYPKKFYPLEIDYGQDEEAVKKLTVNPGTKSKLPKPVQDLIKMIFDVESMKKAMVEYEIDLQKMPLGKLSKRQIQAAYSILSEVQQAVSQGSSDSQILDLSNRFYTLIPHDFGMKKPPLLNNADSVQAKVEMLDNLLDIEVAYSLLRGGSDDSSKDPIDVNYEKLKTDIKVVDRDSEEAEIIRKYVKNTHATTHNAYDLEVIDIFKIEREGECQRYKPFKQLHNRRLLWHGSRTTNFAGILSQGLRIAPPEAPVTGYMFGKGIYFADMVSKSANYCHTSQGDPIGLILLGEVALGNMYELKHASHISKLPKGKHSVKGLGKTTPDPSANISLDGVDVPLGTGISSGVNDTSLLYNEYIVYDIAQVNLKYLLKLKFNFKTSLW
Sequence of PARP2 (Q9UGN5 whole entry): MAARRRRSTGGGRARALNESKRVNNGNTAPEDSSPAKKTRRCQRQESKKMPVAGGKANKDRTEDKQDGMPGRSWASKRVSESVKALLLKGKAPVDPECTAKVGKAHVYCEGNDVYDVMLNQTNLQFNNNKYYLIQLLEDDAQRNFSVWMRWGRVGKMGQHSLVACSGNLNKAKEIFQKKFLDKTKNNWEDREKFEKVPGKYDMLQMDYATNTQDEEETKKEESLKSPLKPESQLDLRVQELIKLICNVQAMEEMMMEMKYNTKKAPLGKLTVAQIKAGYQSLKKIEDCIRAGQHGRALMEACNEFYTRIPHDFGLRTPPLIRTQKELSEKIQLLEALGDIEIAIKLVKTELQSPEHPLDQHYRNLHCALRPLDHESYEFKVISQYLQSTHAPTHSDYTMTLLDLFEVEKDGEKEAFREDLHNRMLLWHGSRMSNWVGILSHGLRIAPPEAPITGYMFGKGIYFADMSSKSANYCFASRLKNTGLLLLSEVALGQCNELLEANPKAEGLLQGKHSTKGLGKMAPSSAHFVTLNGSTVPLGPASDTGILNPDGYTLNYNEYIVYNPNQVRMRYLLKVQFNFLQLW

| IC50 [1] | Selectivity PARP2/PARP1 [1] | pIC50 [2] | pIC50 [3] | SMILES |
| --- | --- | --- | --- | --- |
| 3.6 nM | 46.9 | 6.77 | – | CNC(=O)c1ccc(N2CCN(Cc3cc(OC(F)(F)F)c4nc(C)c(=O)[nH]c4c3)CC2)c(F)n1 [Example 17, 6-fluoro-N-methyl-5-(4-((2-methyl-3-oxo-8-(trifluoromethoxy)-3,4-dihydroquinoxalin-6-yl)methyl)piperazin-1-yl)picolinamide] |
| 5.5 nM | 1813.7 | < 5.00 | 7.50 | CNC(=O)c1ccc(N2CCN(Cc3cc(C#CC4CC4)c4nc(C)c(=O)[nH]c4c3F)CC2)c(F)n1 [Example 22, 5-(4-((8-(cyclopropylethynyl)-5-fluoro-2-methyl-3-oxo-3,4-dihydroquinoxalin-6-yl)methyl)piperazin-1-yl)-6-fluoro-N-methylpicolinamide] |
| 10 nM | 1004.6 | < 5.00 | – | CNC(=O)c1ccc(C2=CCN(Cc3cc(C#CC4CC4)c4nc(C)c(=O)[nH]c4c3F)CC2)c(F)n1 [Example 24, 1'-((8-(cyclopropylethynyl)-5-fluoro-2-methyl-3-oxo-3,4-dihydroquinoxalin-6-yl)methyl)-2-fluoro-N-methyl-1',2',3',6'-tetrahydro-[3,4'-bipyridine]-6-carboxamide] |
| 2.2 nM | 278.9 | 6.20 | – | CNC(=O)c1ccc(N2CCN(Cc3cc(Oc4ccccc4F)c4nc(C)c(=O)[nH]c4c3)CC2)c(F)n1 [Example 27, 6-fluoro-5-(4-((8-(2-fluorophenoxy)-2-methyl-3-oxo-3,4-dihydroquinoxalin-6-yl)methyl)piperazin-1-yl)-N-methylpicolinamide] |
| 1.8 nM | 356.3 | 6.18 | – | CNC(=O)c1ccc(N2CCN(Cc3cc(Oc4cccc(F)c4)c4nc(C)c(=O)[nH]c4c3)CC2)c(F)n1 [Example 28, 6-fluoro-5-(4-((8-(3-fluorophenoxy)-2-methyl-3-oxo-3,4-dihydroquinoxalin-6-yl)methyl)piperazin-1-yl)-N-methylpicolinamide] |
| 11.5 nM | 217.3 | 5.60 | – | CNC(=O)c1ccc(N2CCN(Cc3cc(Oc4ccncc4)c4nc(C)c(=O)[nH]c4c3)CC2)c(F)n1 [Example 29, 6-fluoro-N-methyl-5-(4-((2-methyl-3-oxo-8-(pyridin-4-yloxy)-3,4-dihydroquinoxalin-6-yl)methyl)piperazin-1-yl)picolinamide] |
| 2.5 nM | 18.4 | 7.34 | – | CNC(=O)c1ccc(N2CCN(Cc3cc(C4CCCC4)c4nc(C)c(=O)[nH]c4c3)CC2)c(F)n1 [Example 31, 5-(4-((8-cyclopentyl-2-methyl-3-oxo-3,4-dihydroquinoxalin-6-yl)methyl)piperazin-1-yl)-6-fluoro-N-methylpicolinamide] |
| 2.8 nM | 359.1 | 5.99 | – | CNC(=O)c1ccc(N2CCN(Cc3cc(OC(C)C(F)(F)F)c4nc(C)c(=O)[nH]c4c3)CC2)c(F)n1 (stereo not drawn) [Example 34, 6-fluoro-N-methyl-5-(4-((2-methyl-3-oxo-8-((1,1,1-trifluoropropan-2-yl)oxy)-3,4-dihydroquinoxalin-6-yl)methyl)piperazin-1-yl)picolinamide] |
| 3 nM | 139.8 | 6.38 | – | CC#Cc1cc(CN2CCN(c3ccc(C#N)nc3)CC2)cc2[nH]c(=O)c(C)nc12 [Example 36, 5-(4-((2-methyl-3-oxo-8-(prop-1-yn-1-yl)-3,4-dihydroquinoxalin-6-yl)methyl)piperazin-1-yl)picolinonitrile] |
| 12.9 nM | 148.2 | 5.72 | – | CC#Cc1cc(CN2CCN(c3ccc(OC(F)F)nc3)CC2)cc2[nH]c(=O)c(C)nc12 [Example 37, 7-((4-(6-(difluoromethoxy)pyridin-3-yl)piperazin-1-yl)methyl)-3-methyl-5-(prop-1-yn-1-yl)quinoxalin-2(1H)-one] |
| 5.7 nM | >1756.9 | < 5.00 | – | CC#Cc1cc(CN2CCN(c3ccc(C(=O)NC)nc3)CC2)c(F)c2[nH]c(=O)c(C)nc12 [Example 40, 5-(4-((5-fluoro-2-methyl-3-oxo-8-(prop-1-yn-1-yl)-3,4-dihydroquinoxalin-6-yl)methyl)piperazin-1-yl)-N-methylpicolinamide] |
| – | – | – | 7.63 | CC#Cc1cc(CN2CCN(c3ccc(C(=O)NC)nc3F)CC2)c(F)c2[nH]c(=O)c(C3CC3)nc12 [Example 48, 5-(4-((2-cyclopropyl-5-fluoro-3-oxo-8-(prop-1-yn-1-yl)-3,4-dihydroquinoxalin-6-yl)methyl)piperazin-1-yl)-6-fluoro-N-methylpicolinamide] |
| 6.4 nM | >1554 | < 5.00 | – | CNC(=O)c1ccc(C2=CCN(Cc3cc(OC(F)F)c4nc(C)c(=O)[nH]c4c3F)CC2)c(C)n1 [Example 62, 1'-((8-(difluoromethoxy)-5-fluoro-2-methyl-3-oxo-3,4-dihydroquinoxalin-6-yl)methyl)-N,2-dimethyl-1',2',3',6'-tetrahydro-[3,4'-bipyridine]-6-carboxamide] |
| 3.6 nM | 46.9 | 6.77 | 8.01 | CNC(=O)c1ccc(N2CCN(Cc3cc(OC(F)(F)F)c4nc(C)c(=O)[nH]c4c3)CC2)c(C)n1 [Example 64, N,6-dimethyl-5-(4-((2-methyl-3-oxo-8-(trifluoromethoxy)-3,4-dihydroquinoxalin-6-yl)methyl)piperazin-1-yl)picolinamide] |
| 1.9 nM | 42.1 | 7.10 | 8.37 | CCONC(=O)c1ccc(N2CCN(Cc3cc(OC(F)F)c4nc(C)c(=O)[nH]c4c3)CC2)c(F)n1 [Example 65, 5-(4-((8-(difluoromethoxy)-2-methyl-3-oxo-3,4-dihydroquinoxalin-6-yl)methyl)piperazin-1-yl)-N-ethoxy-6-fluoropicolinamide] |
| 2.4 nM | 59.6 | 6.84 | 8.15 | CCNNC(=O)c1ccc(N2CCN(Cc3cc(OC(F)F)c4nc(C)c(=O)[nH]c4c3)CC2)c(F)n1 [Example 66, 5-(4-((8-(difluoromethoxy)-2-methyl-3-oxo-3,4-dihydroquinoxalin-6-yl)methyl)piperazin-1-yl)-N'-ethyl-6-fluoropicolinohydrazide] |
| 6.9 nM | >1444 | < 5.00 | – | CC#Cc1cc(CN2CC=C(c3ccc(C(=O)NC4CC4)nc3)CC2)c(F)c2[nH]c(=O)c(C)nc12 [Example 67, N-cyclopropyl-1'-((5-fluoro-2-methyl-3-oxo-8-(prop-1-yn-1-yl)-3,4-dihydroquinoxalin-6-yl)methyl)-1',2',3',6'-tetrahydro-[3,4'-bipyridine]-6-carboxamide] |
| 5.7 nM | 472.0 | 5.57 | – | CNC(=O)c1ccc(N2CCN(Cc3cc(-c4cccc(OC)c4)c4nc(C)c(=O)[nH]c4c3)CC2)c(F)n1 [Example 73] |

| SMILES | IC50 [1] | Selectivity PARP2/PARP1 [1] | pIC50 [2] | pIC50 [3] |
| --- | --- | --- | --- | --- |
| CC#Cc1cc(CN2CC=C(c3ccc(C(=O)NC)nc3F)CC2)c(F)c2[nH]c(=O)c(C)nc12 [Example 23, 2-fluoro-1'-((5-fluoro-2-methyl-3-oxo-8-(prop-1-yn-1-yl)-3,4-dihydroquinoxalin-6-yl)methyl)-N-methyl-1',2',3',6'-tetrahydro-[3,4'-bipyridine]-6-carboxamide] | 2.4 nM | 4113.1 | < 5.00 | – |
| CC#Cc1cc(CN2CC=C(c3ccc(C(=O)NC)nc3)CC2)c(F)c2[nH]c(=O)c(C)nc12 [Example 50, 1'-((5-fluoro-2-methyl-3-oxo-8-(prop-1-yn-1-yl)-3,4-dihydroquinoxalin-6-yl)methyl)-N-methyl-1',2',3',6'-tetrahydro-[3,4'-bipyridine]-6-carboxamide] | 3.3 nM | >3042 | < 5.00 | – |
| CC#Cc1cc(CN2CC=C(c3ccc(C(=O)NC)nc3)CC2)cc2[nH]c(=O)c(C)nc12 [Example 51, N-methyl-1'-((2-methyl-3-oxo-8-(prop-1-yn-1-yl)-3,4-dihydroquinoxalin-6-yl)methyl)-1',2',3',6'-tetrahydro-[3,4'-bipyridine]-6-carboxamide] | 7.2 nM | 198.0 | 5.85 | – |
| CNC(=O)c1ccc(C2=CCN(Cc3cc(OC(F)F)c4nc(C)c(=O)[nH]c4c3)CC2)c(C)n1 [Example 58, 1'-((8-(difluoromethoxy)-2-methyl-3-oxo-3,4-dihydroquinoxalin-6-yl)methyl)-N,2-dimethyl-1',2',3',6'-tetrahydro-[3,4'-bipyridine]-6-carboxamide] | 1.1 nM | 2192.4 | 5.61 | 7.87 |
